Measured values reported in US11478451B1, “Macrocyclic chlorine substituted indole derivatives” (Bayer Aktiengesellschaft, priority 2017, dated 2022).
Counter-ions that a name gives are not always drawn. Like-named read-outs stand apart in the source and are kept apart here.

Key:
SUDHL5 cells [1] = assay: Induction of caspase-3/7 activity (Caspase-Glo 3/7), SUDHL5; assay type: cell-based; settings: EC50, median, SUDHL5, 3 h treatment
Experimental: (§1) Induction of Caspase-3/7 Activity Upon Treatment of Cells with Selected Compounds
(§2) The BH3-domain of MCL-1 sequesters pro-apoptotic proteins, thereby inhibiting apoptosis. In contrast, MCL-1 inhibitors are expected to antagonize this effect leading to an increase in apoptosis, which can be determined by measuring the activity of caspase-3/7.
(§3) The activity of caspase-3/7 was determined in DLBCL (Diffuse large B-cell lymphoma) cell lines (SUDHL5 and SUDHL10) upon treatment with different compounds, using the Caspase-Glo® 3/7 reagent from Promega (G8092).
(§4) Rim wells were excluded. The cells were incubated for 3 h hours in a humidified incubator at 37° C.
(§5) For the evaluation of the results, the background measured with “medium-only” was subtracted from all other values.

SUDHL5 cells [2] = assay: Antiproliferation assay (CellTiter-Glo, 72 h), SUDHL5; assay type: cell-based; settings: IC50, median, SUDHL5, 72 h, read-out: Antiproli SUDHL5 [M] (median)
Experimental: (§6) Assessment of the Anti-Proliferative Effect of Compounds in Different Cell Lines
(§7) The impact of compounds on the proliferation of different cell lines was assessed using the CellTiter-Glo® Luminescent Cell Viability reagent from Promega (G7573).
(§8) In parallel, cells were plated in a reference (day 0) plate for time zero determination.
(§9) Rim wells were excluded. The cells were incubated for 72 h hours in a humidified incubator at 37° C. The day 0 plate was measured by adding 30 μL/well of CTG solution (CellTiter-Glo® Luminescent Cell Viability reagent, Promega G7573) to time zero wells in the reference plate followed by a 10 minutes incubation and luminescence reading at 0.1 ms. using the PHERAstar FS microplate reader (BMG Labtech).
(§10) After 72 h incubation, the treated plates were measured in the same way as the day 0 plate mentioned above.

SUDHL10 cells [3] = assay: Induction of cytotoxicity (CellTiter-Glo, 5 h), SUDHL10; settings: SUDHL10, 5 h
SUDHL10 cells [4] = assay: Induction of caspase-3/7 activity (Caspase-Glo 3/7), SUDHL10; assay type: cell-based; settings: EC50, median, SUDHL10, 3 h treatment
Experimental: as §1, §2, §3, §4, §5

SUDHL5 cells [5] = assay: Induction of cytotoxicity (CellTiter-Glo, 5 h), SUDHL5; settings: SUDHL5, 5 h
Experimental: Therefore, cytotoxicity assays were run in parallel in SUDHL5 and SUDHL10 cells.
The different cell lines were plated in culture medium (RPMI 1640 [GIBCO #22400-089] supplemented with 10% Fetal Bovine Serum) at a density of 3,300 cells in 30 μL/well in a sterile, solid black, flat bottom, polystyrene, TC-treated 384-well microplate (Corning #3571) using Multidrop Combi Reagent Dispenser. As a control, medium without cells was also added to the plate. Cells were incubated in a humidified incubator at 37° C. overnight. […] Rim wells were excluded. The cells were incubated for 5 h hours in a humidified incubator at 37° C. After this incubation, 30 μL of CellTiter-Glo® Luminescent Cell Viability reagent (Promega, G7573) was added to each well using the Multidrop Combi Reagent Dispenser, followed by 15 min incubation on a shaker at room temperature. Finally, luminescence was read at 0.1 ms, with a gain of 3000 using the PHERAstar FS microplate reader (BMG Labtech).

AMO-1 cells = assay: Antiproliferation assay (CellTiter-Glo, 72 h), AMO-1; assay type: cell-based; settings: IC50, median, AMO-1, 72 h, read-out: Antiproli AMO-1 [M] median
Experimental: as §6, §7, §8, §9, §10

[6] = Homo sapiens, SU-DHL10, 5 h, read-out: Cytotox SUDHL10 [M] (median), IC50, median
[7] = Homo sapiens, SU-DHL-5, 5 h, read-out: Cytotox SUDHL5 [M] (median), IC50, median
[8] = read-out: Cytotox SUDHL5 [M] (median), IC50, median
[9] = read-out: Cytotox SUDHL10 [M] (median), IC50, median

Row | Compound | EC50 (SUDHL5 cells [1]; Homo sapiens, SU-DHL-5, 3 h) [µM] | IC50 (SUDHL5 cells [2]; Homo sapiens, SU-DHL-5, 72 h) [M] | IC50 (SUDHL10 cells [3]; [6]) [M] | IC50 (SUDHL5 cells [5]; [7]) [M] | IC50 (AMO-1 cells; Homo sapiens, AMO1, 72 h) [M] | EC50 (SUDHL5 cells [1]) [µM] | EC50 (SUDHL10 cells [4]) [µM] | also measured
1 | CCc1c2c(nn1C)CN(CCC(C)(C)O)CCCCn1c(C(=O)O)c(CCCOc3cccc4cc(F)ccc34)c3ccc(Cl)c-2c31 (single isomer, unassigned; enantiomer 2) [Example 141, 4-chloro-3-ethyl-7-{3-[(6-fluoronaphthalen-1-yl)oxy]propyl}-14-(3-hydroxy-3-methylbutyl)-2-methyl-10,11,12,13,14,15-hexahydro-2H-pyrazolo[3′,4′:8,9][1,6]diazacycloundecino[10,11,1-hi]indole-8-carboxylic acid (Enantiomer 2)] | 3 | 1.6e-06 | 3.6e-06 | 2.6e-06 | 2.4e-06 | – | – | EC50 (SUDHL10 cells [4]; Homo sapiens, SU-DHL10, 3 h): 3.6 µM
2 | CCc1c2c(nn1C)COCC1CC1Cn1c(C(=O)O)c(CCCOc3cccc4cc(F)ccc34)c3ccc(Cl)c-2c31 (single isomer, unassigned; (-)) [Example 108, (−)-3-chloro-4-ethyl-14-{3-[(6-fluoronaphthalen-1-yl)oxy]propyl}-5-methyl-5,7,9a,10,10a,11-hexahydro-9H-cyclopropa[3,4]pyrazolo[4′,3′:9,10][1,6]oxazacycloundecino[8,7,6-hi]indole-13-carboxylic acid] | – | – | – | – | – | 6.3 | 7.8 | IC50 (SUDHL5 cells [2]): 1e-05 M; IC50 (SUDHL5 cells [5]; [8]): 7e-06 M; IC50 (AMO-1 cells): 1.3e-06 M
3 | CCc1nn(C)c2c1-c1c(Cl)ccc3c(CCCOc4cccc5cc(F)ccc45)c(C(=O)O)n(c13)CCCCN(C)C2 (single isomer, unassigned; enantiomer 1) [Example 40, 4-chloro-3-ethyl-7-{3-[(6-fluoronaphthalen-1-yl)oxy]propyl}-1,14-dimethyl-10,11,12,13,14,15-hexahydro-1H-pyrazolo[3′,4′:8,9][1,6]diazacycloundecino[10,11,1-hi]indole-8-carboxylic acid (Enantiomer 1)] | 0.2 | 2e-07 | – | – | 3.6e-07 | – | – | –
4 | CCc1nn(CCN2CCOCC2)c2c1-c1c(Cl)ccc3c(CCCOc4cccc5ccccc45)c(C(=O)O)n(c13)C/C=C\CN(C)C2 (racemic) [Example 42, (rac)-(11Z)-4-chloro-3-ethyl-14-methyl-1-[2-(morpholin-4-yl)ethyl]-7-{3-[(naphthalen-1-yl)oxy]-propyl}-10,13,14,15-tetrahydro-1H-pyrazolo[3′,4′:8,9][1,6]diazacycloundecino[10,11,1-hi]indole-8-carboxylic acid] | 2.8 | 2.7e-06 | – | 4e-06 | – | – | – | EC50 (SUDHL10 cells [4]; Homo sapiens, SU-DHL10, 3 h): 9.4 µM
5 | CCc1c2c(nn1C)CN(C)CCCn1c(C(=O)O)c(CCCOc3cccc4cc(F)ccc34)c3ccc(Cl)c-2c31 [Example 114, (−)-2-chloro-11-ethyl-1-{3-[(6-fluoronaphthalen-1-yl)oxy]propyl}-7,10-dimethyl-4,5,6,7,8,10-hexahydropyrazolo[3′,4′:7,8][1,5]diazecino[9,10,1-hi]indole-2-carboxylic acid salt] | – | – | – | – | – | 4.3 | 6.3 | IC50 (SUDHL10 cells [3]; [9]): 5.9e-06 M; IC50 (SUDHL5 cells [5]; [8]): 5.7e-06 M; IC50 (AMO-1 cells): 4.4e-06 M
6 | CCc1c2c(nn1C)COCCCCn1c(C(=O)O)c(CCCOc3cccc4cc(F)ccc34)c3ccc(Cl)c-2c31 (single isomer, unassigned; enantiomer 1) [Example 69, 4-chloro-3-ethyl-7-{3-[(6-fluoronaphthalen-1-yl)oxy]propyl}-2-methyl-2,10,11,12,13,15-hexahydropyrazolo[4′,3′:9,10][1,6]oxazacycloundecino[8,7,6-hi]indole-8-carboxylic acid (Enantiomer 1)] | 1.8 | 4.2e-06 | 7.3e-06 | 2.3e-06 | – | – | – | EC50 (SUDHL10 cells [4]; Homo sapiens, SU-DHL10, 3 h): 8.3 µM
7 | Cc1c2c(nn1C)COCC1CCC1Cn1c(C(=O)O)c(CCCOc3cccc4ccccc34)c3ccc(Cl)c-2c31 (single isomer, unassigned; enantiomer 1) [Example 78, 3-chloro-4,5-dimethyl-15-{3-[(naphthalen-1-yl)oxy]propyl}-5,7,9,9a,10,11,11a,12-octahydrocyclobuta[3,4]pyrazolo[4′,3′:9,10][1,6]oxazacycloundecino[8,7,6-hi]indole-14-carboxylic acid (Enantiomer 1)] | 0.67 | – | 3.1e-06 | 8.2e-07 | 3e-06 | – | – | EC50 (SUDHL10 cells [4]; listed as 078): 3.8 µM
8 | CCc1c2c(nn1C)COCC(O)CCn1c(C(=O)O)c(CCCOc3cccc4cc(F)ccc34)c3ccc(Cl)c-2c31 (stereo not drawn) [Example 101, 4-chloro-3-ethyl-7-{3-[(6-fluoronaphthalen-1-yl)oxy]propyl}-12-hydroxy-2-methyl-2,10,11,12,13,15-hexahydropyrazolo[4′,3′:9,10][1,6]oxazacycloundecino[8,7,6-hi]indole-8-carboxylic acid-N-ethylethanamine salt] | – | – | – | – | – | 5.9 | 6.1 | IC50 (SUDHL10 cells [3]; [9]): 7.7e-06 M; IC50 (SUDHL5 cells [5]; [8]): 7.3e-06 M
9 | CCc1c2c(nn1C)CN(CCC1CCOCC1)CCCCn1c(C(=O)O)c(CCCOc3cccc4cc(F)ccc34)c3ccc(Cl)c-2c31 (single isomer, unassigned; enantiomer 2) [Example 137, 4-chloro-3-ethyl-7-{3-[(6-fluoronaphthalen-1-yl)oxy]propyl}-2-methyl-14-[2-(oxan-4-yl)ethyl]-10,11,12,13,14,15-hexahydro-2H-pyrazolo[3′,4′:8,9][1,6]diazacycloundecino[10,11,1-hi]indole-8-carboxylic acid N-ethylethanamine (Enantiomer 2)] | – | 5.1e-06 | 7.7e-06 | 8.2e-06 | 5e-06 | – | – | –
10 | CCc1c2c(nn1C)CCCCCCn1c(C(=O)O)c(CCCOc3cccc4ccccc34)c3ccc(Cl)c-2c31 (racemic) [Example 51, (rac)-4-chloro-3-ethyl-2-methyl-7-{3-[(naphthalen-1-yl)oxy]propyl}-10,11,12,13,14,15-hexa-hydro-2H-pyrazolo[4′,3′:4,5]azacycloundecino[3,2,1-hi]indole-8-carboxylic acid] | – | 6.7e-06 | 8.6e-06 | 8.4e-06 | – | – | – | –
11 | CCc1nn(CCN2CCOCC2)c2c1-c1c(Cl)ccc3c(CCCOc4cccc5ccccc45)c(C(=O)O)n(c13)CCCCN(C)C2 (racemic) [Example 45, (rac)-4-chloro-3-ethyl-14-methyl-1-[2-(morpholin-4-yl)ethyl]-7-{3-[(naphthalen-1-yl)oxy]propyl}-10,11,12,13,14,15-hexahydro-1H-pyrazolo[3′,4′:8,9][1,6]diazacycloundecino[10,11,1-hi]indole-8-carboxylic acid] | 9.4 | 7.2e-06 | – | 8.1e-06 | – | – | – | –
12 | CCc1c2c(nn1C)CNCCCCn1c(C(=O)O)c(CCCOc3cccc4cc(F)ccc34)c3ccc(Cl)c-2c31 (racemic) [Example 130, (rac)-4-chloro-3-ethyl-7-{3-[(6-fluoronaphthalen-1-yl)oxy]propyl}-2-methyl-10,11,12,13,14,15-hexahydro-2H-pyrazolo[3′,4′:8,9][1,6]diazacycloundecino[10,11,1-hi]indole-8-carboxylic acid] | 7.3 | 7.5e-06 | – | 7.1e-06 | 6.3e-06 | – | – | –
13 | CCc1c2c(nn1C)COCC1CC1Cn1c(C(=O)O)c(CCCOc3cccc4cc(F)ccc34)c3ccc(Cl)c-2c31 (single isomer, unassigned; (-)) [Example 105, (−)-3-chloro-4-ethyl-14-{3-[(6-fluoronaphthalen-1-yl)oxy]propyl}-5-methyl-5,7,9a,10,10a,11-hexahydro-9H-cyclopropa[3,4]pyrazolo[4′,3′:9,10][1,6]oxazacycloundecino[8,7,6-hi]indole-13-carboxylic acid N-ethylethanamine salt] | – | – | – | – | – | 0.13 | 0.12 | IC50 (SUDHL10 cells [3]; [9]): 2.2e-07 M
